Like-named read-outs stand apart in the source and are kept apart here.
What was measured:
M1 mAChR = target: T1, M1 mAChR (Rattus norvegicus, UniProt P08482); experiment: α-APPs secretion in cell cultures stably transfected with M1 mAChR; assay type: cell-based; conditions: for α-APPs secretion (% of max CCh): maximal response vs 10^−4 M carbachol
T1 construct: expressed in transfected cells
T1 sequence (P08482 1-460): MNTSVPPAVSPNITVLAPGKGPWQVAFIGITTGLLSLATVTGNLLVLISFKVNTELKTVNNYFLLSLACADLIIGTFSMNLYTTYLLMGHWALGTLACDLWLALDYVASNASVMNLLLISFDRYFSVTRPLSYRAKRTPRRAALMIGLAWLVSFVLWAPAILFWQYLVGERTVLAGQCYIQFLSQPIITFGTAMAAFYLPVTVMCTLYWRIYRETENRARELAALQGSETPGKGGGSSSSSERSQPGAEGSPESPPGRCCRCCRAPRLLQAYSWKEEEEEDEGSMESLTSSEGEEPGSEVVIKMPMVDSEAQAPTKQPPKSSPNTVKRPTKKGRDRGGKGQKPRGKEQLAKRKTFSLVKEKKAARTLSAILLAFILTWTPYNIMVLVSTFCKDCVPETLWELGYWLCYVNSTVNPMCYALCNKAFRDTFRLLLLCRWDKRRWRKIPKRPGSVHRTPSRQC
Protocol: Cells were plated in 6 well culture plates and used at the age of 3-5 days after plating. […] Cells exposed to medium alone are referred as controls.
Cell supernatants were collected into Eppendorff tubes containing a cocktail of protease intubitors (5 units/ml aprotinin, […], 5 mg/ml leupeptin and 10^−4 M Phenylmethylsulfonylfluoride (PMSF, a protease inhibitor); Sigma, USA). The collected media were concentrated with Centricon tubes (Amicon, Beverly, Mass., USA) and kept frozen for α-APPs secretion determination. Equal amounts of protein (50-100 μg) were loaded and separated on 10% sodium dodecyl sulfate-polyacrylamide gel electrophoresis (SDS-PAGE) Followed by western blotting onto nitrocellulose membrane, blocked by fat-free milk, and probed for 24 hours at 4° C., with anti-Alzheimer's precursor protein, A4 monoclonal antibody 22C11 (0.25 μg/ml; Boehringer Mannheim, Germany). The nitrocellulose membranes were washed and incubated for 2 hours at room temperature with peroxidase-linked goat anti-mouse IgG antibodies (Jackson Immunoresearch, USA), followed by extensive washout and staining with enhanced chemiluminescence detection system (Amersham). Quantitative evaluation of the immunoreactive bands, on the exposed films, was performed by video-imaging densitometry (Gel-aid software; Galai Co., Israel). APPs levels were expressed as x-fold increase over basal levels.

tau = experiment: tau-1 immunoreactivity in primary cell cultures (western blot); assay type: cell-based, rat; conditions: cortical and hippocampal cultures, 1-100 μM
Protocol: Primary cell cultures were grown as described in EXAMPLE 38. Cell supernatants were removed and the cells were washed once in medium prior to the addition of cold phosphate buffre saline ph=7.4 (PBS) solution containing 0.2 mM EDTA. Cells were scraped using a rubber policeman, transferred to Eppendorf tubes, and centrifuged at 4° C. Cell pellets were resuspended in lysis buffer (EDTA 5 mM, Tris 50 mM, Triton 1%, NaCl 150 mM) containing protease inhibitors (5 units/ml apronitin, […] and 0.1 mM PMSF, Sigma) and subjected to centrifugation at 4° C. Supernatants were transferred into Eppendorf tubes and kept at −20° C. till analyzed. The extent of tau-1 immunoreactivity (an antibody that recognizes a non-phosphorylated tau at Ser^199) was determined by western blots.

[1] = Morris water maze in C57BL/10SnJ (small hippocampus) vs C57BL6J mice; assay type: in vivo; conditions: for reversal test, swimming speed: normal hippocampi mice, AF150(S) 0.5 mg/kg, AF267B 1 mg/kg
Protocol: C57BL/10SnJ (B10) mice were selected due to their small hippocampi and decreased number of hippocampal pyramidal neurons; the cell loss seemed to be associated with poor spatial learning.
Each group of mice was randomly divided into 7 treatment groups (n=12-14/group). […] All tested compounds and saline were administered once a day for 4 days before starting the behavioral testing, and then for the duration of the 5-day experiment, 30 minutes before testing.
Training: Each mouse was trained for four consecutive days, four trials (one block) per day, in which the platform position remained constant and was located in the center of the southeast quadrant of the pool. Within each block of four trials, each mouse started at each of the starting locations, but the sequence of locations was randomly selected. A trial consisted of placing a mouse by hand into the water facing the wall of the pool at one of four starting locations, north, south, east or west, around the pool's perimeter. Escape latency (the time to find the platform), path length (the distance traveled by the mouse) and speed (the swimming rate of the mouse) were recorded on each trial by the monitoring system.
For each mouse, the path length, escape latency, and swimming speed of the four trials on each of the 4 training days were grouped into blocks (one block for each day). […] Specific comparisons were performed, using the simple main effects contrasts analysis, which is specifically suited for testing significant interactions.
Transfer test. During trial No. 17, on the fourth day, the platform was entirely removed from the pool (a probe trial). In this trial, the mouse was placed into the water for a limited period (30 s), and its spatial bias was measured by recording the relative distribution of escape latency and path length over the four quadrants of the pool.
Reversal test. During trials 18-21, on the fifth day, the platform position was changed to the northwest quadrant, opposite to the training quadrant Thus, during reversal learning, the platform location was moved relative to the configuration of objects within the room, but the pool occupied the same place within the room throughout the entire experiment. Testing of the […] and measures taken were the same as in training.
For each mouse, the escape latency, path length and swimming speed of the reversal test (trials No. 18-21) were grouped into one block.

[2] = Pharmacokinetic study in rats; assay type: in vivo, rat; conditions: for bioavailability: rat, plasma, Rats, po, read-out: Bioavailability (% F)
From the text: The results of the PK profile of AF292 in rats and Beagle dogs (overnight fasting; drug administered in water solution; gavage) are listed in Table 1.

[3] = system: rat pheochromocytoma cells transfected with the M1 mAChR
[4] = normal hippocampus mice, AF150(S) at 1 mg/kg
[5] = small hippocampus mice, both doses
[6] = small hippocampus mice, AF150(S) both doses, AF267B the higher dose
[7] = small hippocampus mice, AF compounds 0.5 and 1 mg/kg i.p., rivastigmine, nicotine 1 mg/kg i.p.

Structure (SMILES)	α-APPs secretion (% of max CCh) (M1 mAChR) [%]	tau-1 immunoreactivity (non-phosphorylated tau) (tau)	reversal test, swimming speed [1]	training, escape latency ([1]; normal hippocampus mice)	training, swimming speed ([1]; normal hippocampus mice)	training, swimming speed ([1]; small hippocampus mice)	transfer test, spatial bias ([1]; small hippocampus mice)	reversal test, escape latency [1, 5]	training, path length [1, 6]	training, escape latency [1, 7]	biovailability in rats [2] [%]	H2O2-induced toxicity [3]	cell death induced by β-A25-35 (MTT) [3]	α-APPs secretion, comparison in words (M1 mAChR)	also measured
CC1=NCC2(CCN(C)CC2)S1 [AF150(S), 2,8-Dimethyl-1-thia-3,8-diaza-spiro[4.5]dec-2-ene]	50	effective in elevating tau immunoreactivity	significantly decreased	increased the escape latencies	impaired the swimming speed	enhancing effect of AF150(S) was equal in both doses	complete spatial bias	improved the escape latency	positively affected the performance	positively affected the training performance	31	protect the cells	significantly attenuated		reversal test, escape latency ([1]; normal hippocampus mice, AF150(S) at 0.5 mg/kg): impaired the escape latency; reversal test, path length [1, 4]: impairment of reversal learning; transfer test, spatial bias [1, 4]: only a partial spatial bias; training, path length ([1]; normal hippocampus mice, AF150(S) only the higher dose): impaired the path length
CC[C@@H]1SC2(CCN(C)CC2)NC1=O [AF267B, (S)-2-ethyl-8-methyl-1-thia-4,8-diaza-spiro[4.5]decan-3-one]		effective in elevating tau immunoreactivity	significantly decreased	did not significantly affect the escape latencies	had no such effect	enhanced the swimming speed in a dose dependent manner	complete spatial bias	improved the escape latency	positively affected the performance	positively affected the training performance		protect the cells	significantly attenuated	more efficacious and more potent than its racemate	α-APPs secretion, fold increase over control (M1 mAChR; 10^−4 M, 1 hour): about 6 fold; bioavailability ([2]; calculated for 2 mg/kg): 30%
CC[C@@H]1SC2(CCNCC2)NC1=O [AF292, (S)-2-Ethyl-1-thia-4,8-diaza-spiro[4.5]decan-3-one]	100										49	protect the cells	significantly attenuated	Equipotent with AF267B	bioavailability ([2]; 10 mg/kg, p.o.): 49%; MTT assay against Aβ 25-35 & H2O2 in cell cultures transfected with rat M1 mAChR [3]: Equipotent with AF267B & CCh at 100

Source: patent publication US7439251B2, “Methods and compositions for treatment of central and peripheral nervous system disorders and novel compounds useful therefor” (Israel Institute for Biological Research, priority 2002, dated 2008)
